The assay addresses Envelope glycoprotein gp160 (Human immunodeficiency virus 1, UniProt Q6QLK5). Description: inhibitors of HIV fusion peptide binding, primary screen, biochemical, uHTS, fluorescence dequenching (AID 1986).

The source made the active and inactive calls. No stated cut-off is given here; in the data, actives have a measured IC50 and inactives only a lower limit.

Chain of Envelope glycoprotein gp160 (Q6QLK5 whole entry, the tested form may be a part): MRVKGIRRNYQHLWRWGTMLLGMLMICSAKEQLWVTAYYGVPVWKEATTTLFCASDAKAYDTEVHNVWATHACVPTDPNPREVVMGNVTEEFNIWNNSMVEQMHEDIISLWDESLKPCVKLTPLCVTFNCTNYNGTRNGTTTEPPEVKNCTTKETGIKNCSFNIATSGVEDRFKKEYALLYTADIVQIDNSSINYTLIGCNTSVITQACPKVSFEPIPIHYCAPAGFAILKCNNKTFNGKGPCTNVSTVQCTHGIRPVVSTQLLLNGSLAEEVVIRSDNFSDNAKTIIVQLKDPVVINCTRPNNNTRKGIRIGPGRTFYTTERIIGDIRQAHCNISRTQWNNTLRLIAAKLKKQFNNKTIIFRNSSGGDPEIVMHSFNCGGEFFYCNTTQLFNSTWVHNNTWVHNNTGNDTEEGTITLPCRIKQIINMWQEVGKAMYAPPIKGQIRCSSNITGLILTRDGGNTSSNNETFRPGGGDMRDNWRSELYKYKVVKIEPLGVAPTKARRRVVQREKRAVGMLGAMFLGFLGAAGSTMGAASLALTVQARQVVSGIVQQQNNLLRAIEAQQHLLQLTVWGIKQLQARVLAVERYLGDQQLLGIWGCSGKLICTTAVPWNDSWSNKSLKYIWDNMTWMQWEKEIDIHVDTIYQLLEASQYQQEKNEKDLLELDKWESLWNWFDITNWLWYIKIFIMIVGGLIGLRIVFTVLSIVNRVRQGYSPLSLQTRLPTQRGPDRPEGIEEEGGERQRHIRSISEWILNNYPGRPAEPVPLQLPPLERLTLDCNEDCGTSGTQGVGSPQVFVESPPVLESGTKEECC

In general, IC50 refers to the concentration needed to halve the response being measured. As for `CCCCCOc1ccc(C2C(C(=O)c3ccc(C)o3)=C(O)C(=O)N2c2cc(C)on2)cc1` (configuration not stated), the IC50 is 22.8 µM (active).
For the compound `Cc1ccc(S(=O)(=O)Oc2ccc(/C=C3\C(=N)N4N=C(S(C)(=O)=O)SC4=NC3=O)cc2)cc1`, the IC50 is 16.2 µM (active).

(Values after ChEMBL document CHEMBL1201862, “PubChem BioAssay data set” (2004).)
